According to patent US10806794B2, “Protease inhibitors having enhanced features” (priority 2008, dated 2020):
Several values for one entry are separate records, joined by “and”; a condition that tells them apart may be missing. Equal entries are not always repeated. Where two headings read alike, the source gives them in different places.

What was measured:
[1] = biological target: recombinant HIV-1 protease (Human immunodeficiency virus type 1 group M subtype B (isolate HXB2) (HIV-1), UniProt P04585); test: Enzyme inhibition of purified HIV-1 protease (SensoLyte 520 HIV-Protease Assay Kit); assay type: biochemical
Procedure: Protease inhibitors (PI) are used to treat HIV infection by preventing viral assembly and maturation through the inhibition of HIV-1 protease activity. Biochemical assays were performed to evaluate the potential of PEG-PI conjugates to inhibit HIV-1 protease activity, relative to their respective PI parent molecules. Activity assays were performed at using the SensoLyte 520 HIV-Protease Assay Kit (Anaspec Inc., San Jose, Calif.) and recombinant HIV-1 protease. Protease activity was monitored by the formation of a fluorescent reporter product generated during HIV-1 protease-mediated digestion of a quenched, fluorimetric substrate containing the p17/p24 Pr^gag cleavage site.

[2] = in vitro; assay type: in vitro ADME; details: monkey, microsomes
Text: Metabolic stability of test compounds was studied in monkey liver microsomes.

[3] = biological target: hERG (Homo sapiens (Human), UniProt Q12809); test: hERG current (IKr) in HEK-293 cells, whole-cell patch clamp; assay type: cell-based; details: for IC50: hERG current in HEK-293 cells, whole-cell patch clamp, read-out: IC50 (Block of hERG at 0.1 Hz); for IC50 / inhibition at 10 µM / inhibition at 30 µM / inhibition at 100 µM: 0.1 Hz; for inhibition at 10 µM / inhibition at 30 µM / inhibition at 100 µM: human, HEK-293 cells stably expressing hERG, read-out: Mean % inhibition ± SEM (Block of hERG at 0.1 Hz); for inhibition at 10 µM / inhibition at 30 µM / inhibition at 100 µM / Mean % inhibition ± SEM (Block of hERG at 0.1 Hz): HEK-293 cells
Chain of hERG (Q12809 whole entry): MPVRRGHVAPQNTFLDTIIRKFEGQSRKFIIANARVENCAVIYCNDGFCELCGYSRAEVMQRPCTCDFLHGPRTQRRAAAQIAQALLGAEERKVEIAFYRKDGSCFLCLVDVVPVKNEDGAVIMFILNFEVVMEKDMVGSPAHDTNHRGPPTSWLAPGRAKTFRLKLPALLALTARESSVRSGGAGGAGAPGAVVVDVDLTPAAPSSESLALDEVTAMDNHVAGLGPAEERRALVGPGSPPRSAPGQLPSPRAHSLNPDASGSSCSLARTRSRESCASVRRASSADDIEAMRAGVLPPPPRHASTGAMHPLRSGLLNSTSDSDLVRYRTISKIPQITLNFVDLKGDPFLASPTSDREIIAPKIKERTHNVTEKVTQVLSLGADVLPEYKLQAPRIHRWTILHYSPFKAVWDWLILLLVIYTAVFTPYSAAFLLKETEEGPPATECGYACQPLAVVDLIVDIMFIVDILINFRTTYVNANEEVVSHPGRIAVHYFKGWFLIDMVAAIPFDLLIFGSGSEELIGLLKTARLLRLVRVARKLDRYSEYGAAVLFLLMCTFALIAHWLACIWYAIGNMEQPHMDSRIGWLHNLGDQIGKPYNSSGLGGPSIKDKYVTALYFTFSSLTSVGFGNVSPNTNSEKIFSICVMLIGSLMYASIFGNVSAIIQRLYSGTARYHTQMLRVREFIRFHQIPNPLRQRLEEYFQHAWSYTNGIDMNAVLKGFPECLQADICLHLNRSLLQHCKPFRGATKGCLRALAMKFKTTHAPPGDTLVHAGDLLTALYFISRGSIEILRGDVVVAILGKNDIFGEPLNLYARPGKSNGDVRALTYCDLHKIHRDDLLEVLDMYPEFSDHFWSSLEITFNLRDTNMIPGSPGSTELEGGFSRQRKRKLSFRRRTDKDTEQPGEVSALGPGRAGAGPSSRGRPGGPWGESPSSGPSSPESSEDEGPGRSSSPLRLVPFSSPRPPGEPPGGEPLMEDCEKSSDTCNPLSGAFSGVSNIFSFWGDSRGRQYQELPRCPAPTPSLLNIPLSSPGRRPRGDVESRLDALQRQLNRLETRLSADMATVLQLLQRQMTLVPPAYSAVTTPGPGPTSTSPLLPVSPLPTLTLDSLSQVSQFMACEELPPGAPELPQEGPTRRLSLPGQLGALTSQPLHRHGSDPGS
Procedure: Currents were measured using the whole-cell variant of the patch clamp method. Glass pipettes were produced with tip openings of […] for K current recordings. Pipette tip resistance was approximately 1.0 to 2.0 MΩ when filled with K internal solutions (130 mM KCl, 5 mM MgCl2, 10 mM HEPES, 5 mM EGTA, 5 mM ATP-Na2, pH7.2). An Axopatch 1-B amplifier (Axon Instruments, Foster City, Calif.) was used for whole-cell voltage clamping. Voltage clamp pulses were controlled by pClamp software (ver 9.2, Axon Instruments).
After rupture of the cell membrane, current kinetics and amplitudes were allowed to stabilize as the cell was dialyzed with internal solution and paced at 0.1 Hz (−75 mV; 500 msec, +10 mV; 500 msec, −40 mV; typically 2-4 minutes). Currents were considered stable if the currents elicited by a series of voltage pulses given at 0.1 Hz were superimposed. Peak hERG current was measured as the maximum outward deflection of the tail current elicited upon return to −40 mV.
Data are presented in Table 19 as the percent reduction of current amplitude. This was measured as current reduction after a steady-state effect had been reached in the presence of drug relative to current amplitude before drug was introduced (control). Each cell served as its own control.

[4] = in vitro; assay type: in vitro ADME; details: dog, microsomes
Text: Metabolic stability of test compounds was studied in dog liver microsomes.

[5] = Metabolic stability in rat liver microsomes; assay type: in vitro ADME
Text: Metabolic stability of test compounds was studied in rat liver microsomes.

[6] = system: CEM-SS cells; test: CEM-SS cytotoxicity (XTT); details: 7 days
Procedure: One day prior to assay initiation, cells were split 1:2 to assure exponential growth at the time of the assay. Cells were counted using a hemocytometer, and viability measured by Trypan Blue dye exclusion. […] CEM-SS cells were resuspended at 5×10^4 cells/mL in medium, and 100 μL of the cell suspension was aliquoted to individual wells of a 96-well microtiter plate containing 100 μL 2× concentration test compound. Plates were incubated for 7 days at 37° C., 5% CO2 until cytotoxicity evaluation.
Test compound-induced cytotoxicity was evaluated by monitoring the reduction of the tetrazolium dye XTT to a soluble formazan product in microtiter plates containing compound-treated cells in the absence of HIV-1 virus. XTT solution was prepared at 0.15 mg/mL in phosphate buffered saline. Phenazine methosulfate (PMS) solution was prepared at 0.15 mg/mL in phosphate buffered saline. A XTT/PMS stock solution was prepared immediately before use by combining 40 uL of PMS per mL of XTT solution. Fifty microliters of the XTT/PMS stock was added to each well of the microtiter plate, the plate was incubated for four hours at 37° C., and the amount of soluble formazan product was measured as the absorbance at 450 nm. Cell viability is directly proportional to the amount of soluble formazan product formed.

[7] = system: PBMCs; test: Toxicity in PBMCs cultured without virus (XTT)
Procedure: Fresh human peripheral blood mononuclear cells (PBMCs) obtained from a commercial source were purified following centrifugation using a Ficoll-Hypaque density gradient. Viable cells were induced to proliferate in the presence of PHA-P and recombinant human IL-2 for 72 hours. […] Cell supernatant containing HIV-1 viral was incubated for 90 minutes at 37° C. with a reaction mixture containing EGTA, Triton X-100, Tris (pH 7.4), DTT, MgCl2, poly rA, oligo dT, and tritiated thymidine triphosphate (TTP). Incorporation of TTP into DNA was monitored by spotting the reaction mixture onto a DEAE filter mat, followed by washes with 5% phosphate buffer, distilled water, and 70% ethanol, and subsequent drying of the mat. […] TI was calculated as TC50/EC50.

[8] = biological target: CYP2D6 (Homo sapiens (Human), UniProt P10635); test: Metabolic stability in CYP2D6-expressing Bactosomes; assay type: in vitro ADME; details: 5 μM
Chain of CYP2D6 (P10635 whole entry, canonical isoform): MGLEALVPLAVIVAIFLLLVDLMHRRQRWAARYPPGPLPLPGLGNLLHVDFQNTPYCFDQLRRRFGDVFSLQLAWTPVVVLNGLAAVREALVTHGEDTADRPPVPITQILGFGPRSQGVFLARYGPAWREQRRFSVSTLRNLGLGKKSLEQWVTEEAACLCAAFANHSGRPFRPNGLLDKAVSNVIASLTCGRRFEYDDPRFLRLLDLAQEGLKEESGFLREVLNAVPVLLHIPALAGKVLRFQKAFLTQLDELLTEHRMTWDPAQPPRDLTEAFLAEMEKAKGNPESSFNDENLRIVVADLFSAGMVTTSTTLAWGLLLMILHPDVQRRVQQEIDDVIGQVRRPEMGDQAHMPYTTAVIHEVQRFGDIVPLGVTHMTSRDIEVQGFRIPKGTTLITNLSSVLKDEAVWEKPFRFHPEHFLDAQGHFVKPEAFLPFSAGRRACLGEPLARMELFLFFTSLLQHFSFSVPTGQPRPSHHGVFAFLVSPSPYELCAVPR
Procedure: Compounds were evaluated for their propensity to act as substrates of individual human cytochrome P450 enzymes using a bacterial membrane preparation co-expressing human NADPH-cytochrome P450 reductase with either human CYP3A4 or CYP2D6 (Bactosomes™ Cypex, Ltd., Dundee, UK). In vitro metabolism studies using Bactosomes™ expressing individual human CYP isoforms monitor the extent to which a test compound is metabolized by a single CYP450 enzyme and allow identification of the CYP isoforms that may be responsible for the metabolism of a test compound. Timecourse analyses of test molecules (5 μM) with CYP2D6- or CYP3A4-expressing Bactosomes™ (100 pmol/mL) are performed in buffer (0.1 M phosphate, pH 7.4) in a final reaction volume of 25 μL. […] Reactions are terminated by the addition of methanol (50 μL) containing internal standard at 0, 5, 15, 30, and 45 minutes.

[9] = system: mouse plasma proteins; test: Plasma protein binding by equilibrium dialysis, mouse plasma; assay type: in vitro ADME; details: fraction unbound
Procedure: (§1) In assays to estimate binding of test compounds to plasma proteins, test compound solutions (5 μM) are prepared in buffer and species-specific plasma (final DMSO concentration 0.5%). The plasma-containing solution is added to one side of the membrane of an equilibrium dialysis system, and the plasma-free is added to the other side. Dialysis was allowed to reach equilibrium by incubation for two hours at 37° C. The concentration of compound on both sides of the membrane was measured using LC-MS/MS.

[10] = system: monkey plasma proteins; test: Plasma protein binding by equilibrium dialysis, monkey plasma; assay type: in vitro ADME; details: fraction unbound
Procedure: as §1

[11] = system: rat plasma proteins; test: Plasma protein binding by equilibrium dialysis, rat plasma; assay type: in vitro ADME; details: fraction unbound
Procedure: as §1

[12] = system: dog plasma proteins; test: Plasma protein binding by equilibrium dialysis, dog plasma; assay type: in vitro ADME; details: fraction unbound
Procedure: as §1

[13] = seven days, absence of virus, XTT

COC(=O)N[C@H](C(=O)N[C@@H](Cc1ccccc1)[C@@H](O)CN(Cc1ccc(-c2ccccn2)cc1)NC(=O)[C@@H](NC(=O)OC)C(C)(C)C)C(C)(C)C [Atazanavir, reference compound]
IC50 ([1]; IC50 ± SD): 1.55 nM and 6.92 nM and 5.12 nM and 7.6 nM and 7.37 nM
half-life [2]: 24.2 min
microsomal CLint [2]: 42.9 µL/min/mg
IC50 [3]: 63900 nM
inhibition at 10 µM ([3]; 10 μM): 15.6 ± 1.9%
inhibition at 30 µM ([3]; 30 μM): 32.5 ± 3.7%
inhibition at 100 µM ([3]; 100 μM): 60.5 ± 2.5%
half-life [4]: 51.8 min
microsomal CLint [4]: 26.8 µL/min/mg
half-life [5]: 24.2 min
XTT (CEM-SS) TC50 [6]: 302100 nM

CC(C)CN(C[C@@H](O)[C@H](Cc1ccccc1)NC(=O)O[C@H]1CO[C@H]2OCC[C@H]21)S(=O)(=O)c1ccc(N)cc1 [Darunavir, reference compound]
XTT (CEM-SS) TC50 [6]: 338600 nM

COCCOCCOCCOc1ccc(C[C@H](NC(=O)O[C@H]2CO[C@H]3OCC[C@H]32)C(O)CN(CC(C)C)S(=O)(=O)c2ccc(N)cc2)cc1 (stereo partly shown) [mPEG3-O-Darunavir]
PBMC TC50 ± SD [7, 13]: >200000 nM
XTT (CEM-SS) TC50 [6]: >400000 nM

COCCOCCOCCOCCOCCNc1ccc(S(=O)(=O)N(CC(C)C)CC(O)[C@H](Cc2ccccc2)NC(=O)O[C@H]2CO[C@H]3OCC[C@H]32)cc1 (stereo partly shown) [mPEG5-N-Darunavir]
2D6 t1/2 ± SEM [8]: 49.6 ± 2.63 min

COCCOCCOCCOCCOCCOc1ccc(C[C@H](NC(=O)O[C@H]2CO[C@H]3OCC[C@H]32)C(O)CN(CC(C)C)S(=O)(=O)c2ccc(N)cc2)cc1 (stereo partly shown) [mPEG5-O-Darunavir]
PBMC TC50 ± SD [7, 13]: >200000 nM
XTT (CEM-SS) TC50 [6]: >400000 nM

COCCOCCOCCOCCOCCOCCOCCNc1ccc(S(=O)(=O)N(CC(C)C)CC(O)[C@H](Cc2ccccc2)NC(=O)O[C@H]2CO[C@H]3OCC[C@H]32)cc1 (stereo partly shown) [mPEG7-N-Darunavir]
PBMC TC50 ± SD [7, 13]: >200000 nM
2D6 t1/2 ± SEM [8]: 29.1 ± 1.95 min

COCCOC(=O)NC(C(=O)NC(Cc1ccccc1)C(O)CN(Cc1ccc(-c2ccccn2)cc1)NC(=O)C(NC(=O)OC)C(C)(C)C)C(C)(C)C (stereo not shown) [mono-mPEG1-Atazanavir]
IC50 ([1]; read-out: IC50 ± SD): 2.82 nM
Mouse Plasma Protein Binding Fu ± SD [9]: 0.0666 ± 0.00662
Monkey Plasma Protein Binding Fu ± SD [10]: 0.246 ± 0.0239
PBMC TC50 ± SD [7]: 135900 nM
Rat Plasma Protein Binding Fu ± SD [11]: 0.0793 ± 0.00541
Dog Plasma Protein Binding Fu ± SD [12]: 0.208 ± 0.0317

COCCOCCOCCOC(=O)NC(C(=O)NC(Cc1ccccc1)C(O)CN(Cc1ccc(-c2ccccn2)cc1)NC(=O)C(NC(=O)OC)C(C)(C)C)C(C)(C)C (stereo not shown) [mono-mPEG3-Atazanavir, {1-[N′-[2-Hydroxy-3-(2-{2-[2-(2-methoxy-ethoxy)-ethoxy]-ethoxycarbonylamino}-3,3-dimethyl-butyrylamino)-4-phenyl-butyl]-N′-(4-pyridin-2-yl-benzyl)-hydrazinocarbonyl]-2,2-dimethyl-propyl}-carbamic Acid Methyl Ester]
half-life [2]: 26.8 min
microsomal CLint [2]: 249 µL/min/mg
IC50 [3]: 88300 nM
inhibition at 10 µM ([3]; 10 μM): 5.4 ± 0.6%
inhibition at 30 µM ([3]; 30 μM): 23.7 ± 3.7%
inhibition at 100 µM ([3]; 100 μM): 53.1 ± 2.6%
half-life [4]: 7.42 min
microsomal CLint [4]: 187 µL/min/mg
half-life [5]: 26.8 min
XTT (CEM-SS) TC50 [6]: >400000 nM

COCCOCCOCCOCCOCCOC(=O)NC(C(=O)NC(Cc1ccccc1)C(O)CN(Cc1ccc(-c2ccccn2)cc1)NC(=O)C(NC(=O)OC)C(C)(C)C)C(C)(C)C (stereo not shown) [mono-mPEG5-Atazanavir]
IC50 ([1]; read-out: IC50 ± SD): 2.91 nM
Mouse Plasma Protein Binding Fu ± SD [9]: 0.217 ± 0.0103
Monkey Plasma Protein Binding Fu ± SD [10]: 0.383 ± 0.359
Clint [2]: 175 μL/min/mg protein
t½ [2]: 57.6 min
Mean % inhibition ± SEM (Block of hERG at 0.1 Hz) ([3]; 10 μM): 11.2 ± 1.4%
Mean % inhibition ± SEM (Block of hERG at 0.1 Hz) ([3]; 30 μM): 26.3 ± 2.9%
Mean % inhibition ± SEM (Block of hERG at 0.1 Hz) ([3]; 100 μM): 43.8 ± 3.9%
IC50 [3]: > 100000 nM
Clint [4]: 93.0 μL/min/mg protein
t1/2 [4]: 14.9 min
Rat Plasma Protein Binding Fu ± SD [11]: 0.307 ± 0.0493
t½ [5]: 57.6 min
Dog Plasma Protein Binding Fu ± SD [12]: 0.695 ± 0.118

COCCOCCOCCOCCOCCOCCOCCOC(=O)NC(C(=O)NC(Cc1ccccc1)C(O)CN(Cc1ccc(-c2ccccn2)cc1)NC(=O)C(NC(=O)OC)C(C)(C)C)C(C)(C)C (stereo not shown) [mono-mPEG7-Atazanavir]
IC50 ([1]; read-out: IC50 ± SD): 1.29 nM
Mouse Plasma Protein Binding Fu ± SD [9]: 0.174 ± 0.00791
Monkey Plasma Protein Binding Fu ± SD [10]: 0.570 ± 0.0439
PBMC TC50 ± SD [7]: 187200 nM
Rat Plasma Protein Binding Fu ± SD [11]: 0.255 ± 0.0778
Dog Plasma Protein Binding Fu ± SD [12]: 0.306 ± 0.0478
